The results in this text go back to US20240254138A1, “TRICYCLIC PYRIMIDINES AS CYCLIN-DEPENDENT KINASE 7 (CDK7) INHIBITORS” (JANSSEN PHARMACEUTICA NV, priority 2021, published 2024).

Like-named read-outs stand apart in the source and are kept apart here.

Assay [1] concerns RNA Polymerase II Serine 5 phosphorylation (Rpb1 CTD, downstream substrate of CDK7) in A549 cells. Put plainly: Imaging-based cellular RNA PolII Ser5 phosphorylation assay in A549 cells. It is filed as cell-based, human. The following applies: wild-type CDK7, RNA PolII Ser5 phosphorylation, averaged over all measurements; for IC50: Homo sapiens, A549, A549 cells, read-out: CDK7_A549 Wild-type CDK7 (pIC50) (converted). The text has this:
(§1) To evaluate inhibition of CDK7 kinase activity, a 384-well automated imaging assay was used. This assay detects Serine 5 phosphorylation on a unique heptapeptide sequence in the C-terminal domain of Rpb1 subunit of RNA polymerase II, the downstream substrate of CDK7. This heptapeptide sequence is repeated up to 52 times in the CTD of Rpb1.
(§2) A549 adenocarcinoma human alveolar basal epithelial cells (ATCC, CCL-185), rabbit Phospho-Rpb1 CTD (Ser5) antibody (D9N51 (Cell Signaling Technology)), DMEM (Sigma), Fetal Bovine Serum (Biowest), L-glutamine (Sigma), Penicillin/Streptomycin (Life Technologies), Sodium Pyruvate (Sigma), Hepes (Sigma), poly-D-lysine coated μclear 384 black plates (Greiner), formaldehyde (PolySciences), D-PBS (Sigma), Methanol (Sigma), Alexa Fluor 488 goat anti rabbit IgG secondary antibody (Life Technologies), HCS CellMask™ Deep Red stain (Life Technologies), Hoechst 33258 (Invitrogen).
(§3) RNA Polymerase II Serine 5 phosphorylation was detected using a specific rabbit Phospho-Rpb1 CTD (Ser5) antibody. A549 adenocarcinoma human alveolar basal epithelial cells were seeded in 20 μl medium (DMEM supplemented with 1% Fetal Bovine Serum (heat inactivated 30′ 56° C.), 2 mM L-glutamine, 50 U/ml penicillin 50 μg/ml streptomycin, 1 mM sodium pyruvate and 50 mM hepes) at 1000 cells/well and cultured in poly-D-lysine coated μclear 384 black plates for 20 hours at 37° C. and 5% CO2.
(§4) After incubation cells were challenged with compound for 3 hours at 37° C. and 5% CO2. DMSO was used as high control and as low control 10 μM of the following reference compound was used:
(§5) 40 nl of test compounds and controls were spotted in cell plates using Echo Liquid Handler (Echo 550, Labcyte). Incubation was followed by 20 minutes fixation with 20 μl 10% formaldehyde at room temperature. Medium/formaldehyde solution was removed, plates were washed 3 times with 30 μl D-PBS (w/o Ca^2+ and Ma^2+) and permeabilization was done by adding 20 μl ice cold methanol for 20 minutes. Cells were washed again 3 times with 30 μl D-PBS and 20 μl blocking buffer (25 ml fetal bovine serum in 500 ml D-PBS) was added for 1 hour.
(§6) After removing blocking buffer 20 μl 1/1000 primary antibody rabbit Phospho-Rpb1 CTD (Ser5) antibody was added which binds to the phosphorylated Serine5 of the heptapeptide sequences in the CTD of Rpb1. Primary antibody was removed, and plates were washed 3 times with 30 μl D-PBS followed by addition of 20 μl 1/2000 Alexa Fluor 488 goat anti rabbit IgG secondary antibody for final detection of Phospho-Rpb1 CTD (Ser5) together with 1/5000 HCS CellMask™ Deep Red stain for membrane staining and 1/5000 Hoechst 33258 for nucleus staining. Last, plates were washed 2 times with 30 μl D-PBS and wells were filled with 40 μL D-PBS, plates were sealed (Thermowell sealing tape) and stored at 4° C. until reading. Plates were read with Opera Phenix (Perkin Elmer) with 10× air objective. Data were calculated and analyzed in Phaedra.
(§7) IC50 values were calculated using the following formula: […]
(§8) Average value of all HC's and all LC's are used for normalizations.
(§9) A best-fit curve is fitted by a minimum sum of squares method to the plot of % Control vs. compound concentration. From this an IC50 value can be obtained. An estimate of the slope of the plot in terms of the Hill coefficient is also obtained.

Assay [2] has as its system RNA Polymerase II Serine 5 phosphorylation in A549 cells overexpressing CDK7-mutant (C312S). As to the kind of experiment: Imaging-based cellular RNA PolII Ser5 phosphorylation assay in A549 cells overexpressing CDK7-mutant (C312S). It is filed as cell-based, human. To be noted: RNA PolII Ser5 phosphorylation, averaged over all measurements; for IC50: Homo sapiens, A549, A549 cells overexpressing CDK7-mutant (C312S), read-out: CDK7_A549 mutant hCDK7(pIC50) (converted); for CDK7_A549 mutant hCDK7(pIC50): A549 cells overexpressing CDK7-mutant (C312S).
From the text: as §1, §2, §3, §4, §5, §6, §7, §8, §9
In parallel this assay was performed in A549 cells overexpressing CDK7-mutant (C312S) to evaluate the effect of the covalent bond on potency and to screen for potential off-target effects. Mutation of Cysteine to Serine (C312S), a less nucleophilic amino acid, prevents CDK7 inhibitors from covalently binding to CDK7 and from inhibiting CDK7 activity in an irreversible manner. A stably transduced A549 cell pool was generated that overexpresses CDK7 mutant (C312S), but also expresses endogenous CDK7-WT. Covalent binders targeting the cysteine at position 312 will show a shift in potency in A549 cells overexpressing mutant C312S CDK7.

Assay [3] concerns the target CDK7/cyclinH/MAT1 trimeric complex (Homo sapiens, UniProt P50613). Put plainly: In vitro CDK7 assay, potency of irreversible covalent inhibitors (kinact/KI), coupled PK/LDH ADP readout at 340 nm.

Sequence of CDK7/cyclinH/MAT1 trimeric complex (P50613 whole entry): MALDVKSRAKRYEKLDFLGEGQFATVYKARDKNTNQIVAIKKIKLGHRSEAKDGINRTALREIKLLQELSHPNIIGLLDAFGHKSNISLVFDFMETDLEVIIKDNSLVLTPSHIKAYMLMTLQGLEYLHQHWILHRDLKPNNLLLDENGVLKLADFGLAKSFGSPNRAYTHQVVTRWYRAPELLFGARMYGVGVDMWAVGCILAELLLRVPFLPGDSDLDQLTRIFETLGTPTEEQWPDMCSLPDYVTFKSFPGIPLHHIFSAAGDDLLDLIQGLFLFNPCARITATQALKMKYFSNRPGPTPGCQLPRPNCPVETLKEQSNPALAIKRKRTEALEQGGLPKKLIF
Sequence of CDK7/cyclinH/MAT1 trimeric complex (P51946 whole entry partner): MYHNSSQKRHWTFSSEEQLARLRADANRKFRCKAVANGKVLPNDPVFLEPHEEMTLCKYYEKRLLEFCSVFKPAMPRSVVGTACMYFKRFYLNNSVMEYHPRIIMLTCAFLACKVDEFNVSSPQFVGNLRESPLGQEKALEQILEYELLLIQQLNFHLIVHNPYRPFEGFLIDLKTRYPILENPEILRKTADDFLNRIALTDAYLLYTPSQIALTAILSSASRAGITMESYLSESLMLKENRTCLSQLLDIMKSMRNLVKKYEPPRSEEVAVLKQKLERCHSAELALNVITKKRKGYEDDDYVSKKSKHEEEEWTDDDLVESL
Sequence of CDK7/cyclinH/MAT1 trimeric complex (P51948 whole entry partner): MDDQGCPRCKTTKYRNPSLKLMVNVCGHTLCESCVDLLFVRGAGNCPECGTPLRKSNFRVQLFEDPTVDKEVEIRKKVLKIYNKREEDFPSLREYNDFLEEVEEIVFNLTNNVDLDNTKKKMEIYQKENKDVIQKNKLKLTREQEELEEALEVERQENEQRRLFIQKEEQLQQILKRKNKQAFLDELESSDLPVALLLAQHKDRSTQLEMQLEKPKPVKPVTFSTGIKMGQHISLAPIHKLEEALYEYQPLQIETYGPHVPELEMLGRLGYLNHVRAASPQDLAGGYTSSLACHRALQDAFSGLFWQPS

`C=CC(=O)N1CCC(N2CC[C@H](O)[C@@H](c3ccc4c(c3)OCc3c(N5CCOCC5)ccnc3N4)C2)CC1` (mixture of isomers) [Compound 157]: the IC50 in assay [1] and in assay [2] was > 10 µM throughout.

Regarding `C=CC(=O)N1CC(N2CCN(C)[C@H](c3ccc4c(c3)Nc3nccc(N5CCOCC5)c3CO4)C2)C1` (single isomer, unassigned) [Compound 142], the IC50 is 1.45 µM in assay [1] and > 10 µM in assay [2].

With `C=CC(=O)N1CC(N2CCN(C)[C@@H](c3ccc4c(c3)Nc3nccc(N5CCOCC5)c3CO4)C2)C1` (single isomer, unassigned) [Compound 144], the IC50 in assay [1] and in assay [2] was > 10 µM throughout.

Consider `C=CC(=O)N1CC[C@@H](N2CCC(c3cc4c(c(C)n3)OCc3c(-c5cnn(C)c5)ccnc3N4)CC2)C1` (single isomer, unassigned) [Compound 182], for which the IC50 is 0.038 µM in assay [1] and > 10 µM in assay [2].

For the compound `C=CC(=O)N1CC[C@H](N2CCC(c3cc4c(c(C)n3)OCc3c(-c5cnn(C)c5)ccnc3N4)CC2)C1` (single isomer, unassigned) [Compound 185], the IC50 in assay [1] is 0.0813 µM; in assay [2] it was > 10 µM.

Take `C#CCCN(C)C/C=C/C(=O)N1CC(N2CCC(c3ccc4c(c3)Nc3nccc(C5CCOCC5)c3[C@@H](C)O4)CC2)C1` (single isomer, unassigned) [Compound 186]: the IC50 is 0.1 µM in assay [1] and > 10 µM in assay [2].

`C#CCCN(C)C/C=C/C(=O)N1CC(N2CCC(c3ccc4c(c3)Nc3nccc(C5CCOCC5)c3[C@H](C)O4)CC2)C1` (single isomer, unassigned) [Compound 187]: the IC50 in assay [1] is 4.07 µM; in assay [2], > 10 µM.

`C#CCCN(C)C/C=C/C(=O)N1CC(N2CCC(c3ccc4c(c3)Nc3nccc(N5CCOCC5)c3[C@H](C)O4)CC2)C1` (single isomer, unassigned) [Compound 195]: the IC50 in assay [1] was 0.129 µM; in assay [2], > 10 µM.

As for `C#Cc1cc2c(cc1C1CCN(C3CN(C(=O)C=C)C3)CC1)Nc1nccc(N3CCOCC3)c1[C@H](C)O2` (single isomer, unassigned) [Compound 209], the IC50 was 0.1 µM in assay [1] and > 10 µM in assay [2].

As to `C#Cc1cc2c(cc1C1CCN(C3CN(C(=O)C=C)C3)CC1)Nc1nccc(N3CCOCC3)c1[C@@H](C)O2` (single isomer, unassigned) [Compound 210], the figures for the IC50 in assay [1] and in assay [2] were 8.51 µM and > 10 µM, respectively.

For `C#Cc1cc2c(cc1C1CCN(C3CN(C(=O)C=C)C3)CC1)Nc1nccc(N3CCOCC3)c1[C@H](C)O2` (single isomer, unassigned) [Compound 214], in assay [2], the “CDK7_A549 mutant hCDK7(pIC50)” value is reported as <5. Besides, in assay [3] (read-out: CDK7 (20 nM enz.) (kobs/[I], M^−1*s^−1), 20 nM enzyme), the kinact/KI stood at 417 M⁻¹ s⁻¹.

As to `C=CC(=O)N1CC(N2CC(c3cc4c(c(C)n3)O[C@@H](C)c3c(N5CCOCC5)ccnc3N4)C2)C1` (single isomer, unassigned) [Compound 271], the IC50 in assay [1] was 3.16 µM; in assay [2], > 10 µM.

Turning to `C=CC(=O)N1CC[C@H](N2CCC(c3cc4c(c(C)n3)OCc3c(-c5cnn(C)c5)ccnc3N4)CC2)C1` (single isomer, unassigned) [Compound 293], the figures for the IC50 in assay [1] and in assay [2] were 0.102 µM and > 10 µM, respectively.

Regarding `C=CC(=O)N1CC[C@@H](N2CCC(c3cc4c(c(C)n3)OCc3c(N5CCOCC5)ccnc3N4)CC2)C1` (single isomer, unassigned) [Compound 294], the “CDK7_A549 Wild-type CDK7 (pIC50)” value in assay [1] (A549 cells) is 7.24. In addition, the “CDK7_A549 mutant hCDK7(pIC50)” value in assay [2] was <5.

Consider `C/C=C/C(=O)N1CC[C@@H](N2CCC(c3cc4c(c(C)n3)OCc3c(-c5cnn(C)c5)ccnc3N4)CC2)C1` (single isomer, unassigned) [Compound 302], for which the values for the IC50 in assay [1] and in assay [2] were ~10 µM and > 10 µM, respectively.

As to `C/C=C/C(=O)N1CC[C@H](N2CCC(c3cc4c(c(C)n3)OCc3c(-c5cnn(C)c5)ccnc3N4)CC2)C1` (single isomer, unassigned) [Compound 307], the IC50 in assay [1] and in assay [2] was > 10 µM throughout.

Regarding `C=C(C)C(=O)N1CC[C@@H](N2CCC(c3cc4c(c(C)n3)OCc3c(-c5cnn(C)c5)ccnc3N4)CC2)C1` (single isomer, unassigned) [Compound 311], the IC50 in assay [1] and in assay [2] was > 10 µM in each case.

`C=C(C)C(=O)N1CC[C@H](N2CCC(c3cc4c(c(C)n3)OCc3c(-c5cnn(C)c5)ccnc3N4)CC2)C1` (single isomer, unassigned) [Compound 312]: the IC50 in assay [1] and in assay [2] was > 10 µM each time.

On to `C=CC(=O)N1CC[C@@H](N2CC(c3cc4c(c(C)n3)O[C@@H](C)c3c(C5CCOCC5)ccnc3N4)C2)C1` (single isomer, unassigned) [Compound 334], for which the IC50 in assay [1] is 5.25 µM; in assay [2], > 10 µM.

Consider `C=CC(=O)N1CC[C@H](N2CC(c3cc4c(c(C)n3)O[C@@H](C)c3c(C5CCOCC5)ccnc3N4)C2)C1` (single isomer, unassigned) [Compound 337], for which the IC50 in assay [1] was > 5.01 µM; in assay [2], > 10 µM.

As to `CC#CC(=O)N1CC(N2CC(c3cc4c(c(C)n3)O[C@@H](C)c3c(N5CCOCC5)ccnc3N4)C2)C1` (single isomer, unassigned) [Compound 356], the IC50 in assay [1] is 7.76 µM; in assay [2], > 10 µM.

`CC#CC(=O)N1CCC(N2CC(c3cc4c(c(C)n3)O[C@H](C)c3c(N5CCOCC5)ccnc3N4)C2)CC1` (single isomer, unassigned) [Compound 358]: the IC50 in assay [1] was 0.0398 µM; in assay [2], 6.17 µM.

Turning to `CC#CC(=O)N1CCC(N2CC(c3cc4c(c(C)n3)O[C@@H](C)c3c(N5CCOCC5)ccnc3N4)C2)CC1` (single isomer, unassigned) [Compound 360], the IC50 in assay [1] was 0.676 µM; in assay [2], > 10 µM.

For `CC#CC(=O)N1CC(N2CCC(c3cc4c(c(C)n3)O[C@@H](C)c3c(N5CCOCC5)ccnc3N4)CC2)C1` (single isomer, unassigned) [Compound 371], the IC50 in assay [1] was 2.19 µM; in assay [2] it was > 10 µM.

`CC#CC(=O)N1CC(N2CC[C@H](c3cc4c(c(C)n3)O[C@@H](C)c3c(N5CCOCC5)ccnc3N4)C2)C1` (single isomer, unassigned) [Compound 395]: the IC50 in assay [1] and in assay [2] was > 10 µM each time.

For orientation: kinact means the maximal first-order rate at which the target is inactivated. `C=CC(=O)N1CCC(n2ccc(-c3cc4c(c(C)n3)OCc3c(N5CCOCC5)ccnc3N4)cc2=O)CC1` [compound 419] gave a Ki in assay [3] (CDK7 (20 nM enz.) (KI, μM), 20 nM enzyme) of 0.273 µM. Moreover, in assay [3] (read-out: CDK7 (20 nM enz.) (kinact, s^−1), 20 nM enzyme), the kinact stood at 3.95e-05 s⁻¹. Also, the kinact/KI in assay [3] (read-out: CDK7 (20 nM enz.) (kinact/KI, M^−1*s^−1), 20 nM enzyme) was 144 M⁻¹ s⁻¹.
